Key:
NCI-H1373 cancer cells = experiment: NCI-H1373 cancer cell growth inhibition (CellTiter-Glo, 144 hours); type: cell-based; conditions: Homo sapiens, 144 hours culture
Protocol: Promega CellTiter-Glo cell activity assay kit (Item No.: Promege-G7573) was used to determine the cell activity. 90 μL NCI-H1373 cell suspension (ATCC, catalog No. CRL-5866, batch No. 58078716) was spread into the pores of the 96-well plate with 3500 cells per well. After 24 hours, the 10 μL prepared 10× compound working solution was added into the pores of the cell culture plate with a final concentration of 10 μM. 3.3333 μM, 1.1111 μM, 0.3704 μM, 0.1235 μM, 0.0412 μM, 0.0137 μM, 0.0046 μM, 0.0015 μM, 0.0005 μM, 10 μL DMSO was added to the solvent control, and the final concentration of DMSO was 0.2%. The 0-day plates were collected for analysis, and after 144 hours of culture, the growth condition of cells was detected according to the instructions of CellTiter-Glo cell activity assay kit. Add 50 μL of CellTiter-Glo working liquid into each hole of the cell culture plate, shake the plates in the dark for 2 minutes until cell lysis, and place at room temperature for 10 minutes to detect the luminous signal (RUL) of each cell hole on the 2104En Vision board reader.
Calculation formula: Growth inhibition rate %=(1−(RLU compound−RLU Day0)/(RLU solvent control−RLU Day0))*100%. The dose-response curves of each compound were fitted by GraphPad Prism 8 to obtain IC50 values.
For the matter, IC50 values less than 0.1 μM are labeled “+++”, values from 0.1 to 1 μM are labeled “++”, and values greater than 1 to 10 μM are labeled “+”.

[1] = target: T1, recombinant human PARP7 protein (Homo sapiens, UniProt Q7Z3E1); experiment: Inhibition of PARP7 biological enzyme activity (histone-coated plate, Biotin-NAD+, chemiluminescence); type: biochemical; conditions: recombinant human PARP7, Biotin-NAD+ substrate
T1 construct: purchased Abcam ab271651
T1 sequence (Q7Z3E1 1-657): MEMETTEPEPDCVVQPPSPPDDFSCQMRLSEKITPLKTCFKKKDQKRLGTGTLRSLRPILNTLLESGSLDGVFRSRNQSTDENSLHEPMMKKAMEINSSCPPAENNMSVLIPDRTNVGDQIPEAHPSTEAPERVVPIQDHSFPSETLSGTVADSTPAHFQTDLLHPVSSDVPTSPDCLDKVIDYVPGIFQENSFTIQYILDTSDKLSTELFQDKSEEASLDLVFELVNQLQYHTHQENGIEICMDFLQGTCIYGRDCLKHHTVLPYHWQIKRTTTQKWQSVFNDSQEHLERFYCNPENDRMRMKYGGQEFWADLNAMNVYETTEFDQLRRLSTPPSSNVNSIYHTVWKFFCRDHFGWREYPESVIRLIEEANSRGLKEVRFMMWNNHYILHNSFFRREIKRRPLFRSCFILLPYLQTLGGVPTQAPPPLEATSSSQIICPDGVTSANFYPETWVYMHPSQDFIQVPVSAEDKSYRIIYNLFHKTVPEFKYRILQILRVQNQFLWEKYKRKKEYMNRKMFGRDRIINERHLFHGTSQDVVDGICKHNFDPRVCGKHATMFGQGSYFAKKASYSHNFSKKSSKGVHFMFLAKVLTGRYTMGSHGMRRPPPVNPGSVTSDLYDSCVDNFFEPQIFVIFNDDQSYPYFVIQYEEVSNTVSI
Protocol: The recombinant human PARP7 protein kit (Abcam, catalog number ab271651) was used for the assay. According to the kit instructions, 30 μL of histone coating solution (1.5 μg/mL) was first applied to the 384 well holes of the reaction plate and coated at 4° C. for 2 hours. Then, the histone coated solution was washed off, and 50 μL sealing buffer was added to each well, and the sealing buffer was washed off after incubation at 25° C. for 60 minutes. 1000 times the concentration of the compound was 10 configured and diluted from 1 mM to 0.05 μM, and the configured compound was transferred to 384-well plates with 25 nL per well using Echo. The final concentration of the compound in the reaction system was 1000 nM, 333.33 nM, 111.11 nM, 37.03 nM, 12.34 nM, 4.11 nM, 1.37 nM, 0.45 nM, 0.15 nM, 0.05 nM, which was used as the test hole. At the same time, 25 nL DMSO was added to the negative control well and the positive control well. The PARP7 enzyme solution with a concentration of 1.67 times was prepared, and the PARP7 enzyme solution was added to the test hole and the positive control hole with 15 μL each, while the negative control hole was added with 15 μL base Buffer, and incubated at 25° C. for 15 minutes. Then 10 μL 2.5 times Biotin-NAD+ substrate solution was added and incubated at 25° C. for 60 min. After the reaction solution was washed off, the 384-well reaction plates were treated with closed buffer solution diluted with streptavidin-HRP (1:500), each well was 30 μL, and incubated at 25° C. for 30 min. After the HRP buffer was washed off, 30 μL HRP chemiluminescent substrate mixture was added to each well, and the luminescence signal (RLU) of each well was detected by Envision. Calculation formula: Inhibition rate %=(average positive control-RLU compound)/(average positive control-average negative control))*100%. The dose-response curves of each compound were fitted by GraphPad Prism 8 to get IC50 values. IC50 values less than 0.01 μM are labeled as “+++”, IC50 values from 0.01 to 0.1 µM are labeled as “++”, and IC50 values greater than 0.1 to 10.0 μM are labeled as “+”.

[2] = Pharmacokinetic study in mice (IV and oral gavage); type: in vivo, CD-1 mice; conditions: mouse, plasma, male CD-1 mice
Protocol: Formulation of intravenous and oral gavage administration solutions: The compounds to be tested were dissolved in solutions formulated with 5% DMSO, 10% solutol HS15, and 85% saline.
Dosage (measured as the amount of compound in the administration solution (mg)/mouse body weight (kg)): 3 mg/kg intravenously (IV), 10 mg/kg oral gavage (PO).
A total of 18 CD-1 mice (Shanghai Jihui Experimental Animal Feeding Co., LTD.), male, weight 28-31 g, were fasted for 12 hours and randomly divided into 2 groups (Group A and Group B) with 9 mice in each group. Animals in Group A were given the compound solution by oral gavage at the dose of 10 mg/kg. Animals in Group B were given the compound solution by tail vein injection at the dose of 3 mg/kg, and blank blood was taken before administration. About 110 μL of venous blood was taken from animals in Group A at 0.25 h, 0.5 h, 1 h, 2 h, 4 h, 8 h, and 24 h after administration. About 110 μL of venous blood was taken from animals in Group B at 0.083 h, 0.25 h, 0.5 h, 1 h, 2 h, 4 h, 8 h, and 24 h after administration, and all were placed in test tubes with heparin, centrifuged, and plasma was collected and stored at −70° C. for testing.
AUClast represents the area under the drug time curve from the beginning of the administration time to the last point, that is, the area surrounded by the blood drug concentration curve to the time axis. CL(iv) represents the drug clearance of intravenous administration; T1/2 represents the plasma half-life of the drug, which refers to the time required for half of the drug to be eliminated from the body. Cmax represents the maximum concentration of the drug in the plasma after administration. F % indicates oral bioavailability of the drug.

| SMILES | IC50 (NCI-H1373 cancer cells) [nM] | IC50 [1] [nM] | other results |
| --- | --- | --- | --- |
| C[C@@H](CONC(=O)/C=C1/CCN(c2ncc(C(F)(F)F)cn2)CC1F)Nc1cn[nH]c(=O)c1C(F)(F)F (stereo partly drawn) [Example 24, (Z)-2-(3-fluoro-1-(5-(trifluoromethyl)pyrimidin-2-yl)piperidin-4-ylidene)-N—((S)-2-((6-oxo-5-(trifluoromethyl)-1,6-dihydropyridazin-4-yl)amino)propoxy)acetamide] | 100 to 1000 | < 10 |  |
| C[C@@H](CONC(=O)CC1=CCN(c2ncc(-c3ccccc3F)cn2)CC1)Nc1cn[nH]c(=O)c1C(F)(F)F [Example 26, (S)-2-(1-(5-(2-fluorophenyl)pyrimidin-2-yl)-1,2,3,6-tetrahydropyridin-4-yl)-N-(2-((6-oxo-5-(trifluoromethyl)-1,6-dihydropyridazin-4-yl)amino)propoxy)acetamide] | < 100 | < 10 |  |
| CC1CN(c2ncc(-c3ccccc3F)cn2)CC=C1CC(=O)NOC[C@H](C)Nc1cn[nH]c(=O)c1C(F)(F)F (stereo partly drawn) [Example 27, 2-(1-(5-(2-fluorophenyl)pyrimidin-2-yl)-3-methyl-1,2,3,6-tetrahydropyridin-4-yl)-N—((S)-2-((6-oxo-5-(trifluoromethyl)-1,6-dihydropyridazin-4-yl)amino)propoxy)acetamide] | 100 to 1000 | < 10 |  |
| CC1=C(CC(=O)NOC[C@H](C)Nc2cn[nH]c(=O)c2C(F)(F)F)CCN(c2ncc(-c3ccccc3F)cn2)C1 [Example 28, (S)-2-(1-(5-(2-fluorophenyl)pyrimidin-2-yl)-5-methyl-1,2,3,6-tetrahydropyridin-4-yl)-N-(2-((6-oxo-5-(trifluoromethyl)-1,6-dihydropyridazin-4-yl)amino)propoxy)acetamide] | 100 to 1000 | < 10 |  |
| C[C@@H](CONC(=O)CC1=CCN(c2ncc(C3CC3)cn2)CC1)Nc1cn[nH]c(=O)c1C(F)(F)F [Example 29, (S)-2-(1-(5-cyclopropylpyrimidin-2-yl)-1,2,3,6-tetrahydropyridin-4-yl)-N-(2-((6-oxo-5-(trifluoromethyl)-1,6-dihydropyridazin-4-yl)amino)propoxy)acetamide] | < 100 | < 10 |  |
| CC1CN(c2ncc(C3CC3)cn2)CC=C1CC(=O)NOC[C@H](C)Nc1cn[nH]c(=O)c1C(F)(F)F (stereo partly drawn) [Example 30, 2-(1-(5-cyclopropylpyrimidin-2-yl)-3-methyl-1,2,3,6-tetrahydropyridin-4-yl)-N—((S)-2-((6-oxo-5-(trifluoromethyl)-1,6-dihydropyridazin-4-yl)amino)propoxy)acetamide] | < 100 | < 10 |  |
| CC(=O)c1c(N[C@@H](C)CONC(=O)CC2CCN(c3ncc(C(F)(F)F)cn3)CC2)cn[nH]c1=O [Example 36, (S)—N-(2-((5-acetyl-6-oxo-1,6-dihydropyridazin-4-yl)amino)propoxy)-2-(1-(5-(trifluoromethyl)pyrimidin-2-yl)piperidin-4-yl)acetamide] | < 100 | < 10 |  |
| C[C@@H](CONC(=O)CC1CCN(c2ncc3cc[nH]c3n2)CC1)Nc1cn[nH]c(=O)c1C(F)(F)F [Example 38, (S)-2-(1-(7H-pyrrolo(2,3-d)pyrimidin-2-yl)piperidin-4-yl)-N-(2-((6-oxo-5-(trifluoromethyl)-1,6-dihydropyridazin-4-yl)amino)propoxy)acetamide] | 100 to 1000 | < 10 |  |
| C[C@@H](CONC(=O)CC1CCN(c2ncc3cc(F)ccc3n2)CC1)Nc1cn[nH]c(=O)c1C(F)(F)F [Example 39, (S)-2-(1-(6-fluoroquinazolin-2-yl)piperidin-4-yl)-N-(2-((6-oxo-5-(trifluoromethyl)-1,6-dihydropyridazin-4-yl)amino)propoxy)acetamide] | 100 to 1000 | < 10 |  |
| C[C@@H](CONC(=O)C(F)C1CCN(c2ncc(C(F)(F)F)cn2)CC1)Nc1cn[nH]c(=O)c1C(F)(F)F (stereo partly shown) [Example 48] | < 100 | < 10 |  |
| C[C@@H](CONC(=O)CC1CCN(c2ncc(C(F)(F)F)cn2)CC1F)Nc1cn[nH]c(=O)c1C(F)(F)F (stereo partly drawn) [Example 53, 2-(3-fluoro-1-(5-(trifluoromethyl)pyrimidin-2-yl)piperidin-4-yl)-N—((S)-2-((6-oxo-5-(trifluoromethyl)-1,6-dihydropyridazin-4-yl)amino)propoxy)acetamide] | 100 to 1000 | < 10 |  |
| C[C@@H](COCCC(=O)N1CCN(c2ncc(C(F)(F)F)cn2)CC1)Nc1cn[nH]c(=O)c1C(F)(F)F [RBN-2397, reference compound] |  |  | clearance ([2]; IV 3 mg/kg, read-out: CL(iv) (converted)): 68.3 mL/min/kg; bioavailability ([2]; oral bioavailability, PO 10 mg/kg vs IV 3 mg/kg): 23.9%; AUC(0-t) ([2]; IV 3 mg/kg): 732 ng·h/mL; half-life ([2]; IV 3 mg/kg): 12 min; AUC(0-t) ([2]; PO 10 mg/kg): 582 ng·h/mL; Cmax ([2]; PO 10 mg/kg): 682 ng/mL |

— patent US20240336596A1, “PARP7 INHIBITOR AND USE THEREOF” (NOVOSTAR PHARMACEUTICALS, LTD., priority 2022, published 2024)
